From patent US20040006070A1, “Intraspinal continuous infusion of midazolam hydrochloride for the treatment of pain” (priority 2002, published 2004)

What was measured:
[1] = Toxicity in neuropathic pain sheep: clinical signs, necropsy, histopathology; type: in vivo; conditions: sheep #604 Clint
From the text: Animals will be observed daily for any signs of clinical toxicity such as limping and loss of appetite. At necropsy the spinal cord will be examined for any gross changes. Histopathologic evaluation will be performed on all animals after drug studies are complete. These examinations will detect any neurotoxicity that may be present due to the spinal infusion of midazolam.

[2] = tested on: neuropathic pain model in the sheep; test: Neuropathic pain model in sheep, behavior monitoring (Observer 3.0) with visual analog pain score; type: in vivo
From the text: The neuropathic pain model in the sheep is created by placing four tight ligatures around the median, radial, or ulnar nerve (or a combination thereof) with 0-chromic gut suture. This method produces a chronic painful peripheral mononeuropathy which may be related to those conditions seen in humans with causalgia and reflex sympathetic dystrophy.
To evaluate animal behavior, the Observer 3.0 software (Noldus Information Technology, The Netherlands) was used to aid docmentation of a daily record of multiple traits. […] The behavior was then interpreted into a visual analog pain score (VAS), where 0 represents no pain and 100 represents severe pain.
Approximately three days prior to surgery each sheep will undergo a 15-minute baseline behavior evaluation. The observations made in this evaluation include, a computerized behavior software recording (the Observer) for 15minutes—gait monitoring—and recording of pain perception via visual analog scale-using the Observer. In some animals, recording of vital signs (blood pressure, heart rate, respirations per minute) will be performed using the Observer. Baseline values for pain perception are recorded via the mechanical stimulus device and/or behavior monitoring will also be performed at this time.
The sheep will be observed daily postoperatively. […] Observations of neuropathic pain development include changes in ambulation, alertness, appetite, urination, defecation, herding activity, body temperature and pain behaviors. This daily behavior is recorded utilizing the observer (an observational software system).

[3] = in vivo, cited from earlier work

## CN1CC[C@]23c4c5ccc(O)c4O[C@H]2[C@@H](O)C=C[C@H]3[C@H]1C5.O=S(=O)(O)O [morphine, morphine sulfate]
[1]; intrathecal
  clinical behavior during therapy: restlessness, pain behaviors such as biting itself near the area of the catheter tip, and frequently laying down
[1]; lesion 0.8 cm (L)×0.5 cm (W)×0.3 cm (Depth)
  necropsy, spinal cord: cavitated lesion in the spinal cord in front of the catheter tip
[2]; Sheep #604 Clint, 6 mg Morphine per day intrathecal, first infusion period, Dec. 7, 2001, day of study 0
  Pain Score: 60%
[2]; Sheep #604 Clint, 6 mg Morphine per day intrathecal, first infusion period, Dec. 8, 2001, day of study 1
  Pain Score: 60%
[2]; Sheep #604 Clint, 6 mg Morphine per day intrathecal, first infusion period, Dec. 9, 2001, day of study 2
  Pain Score: 60%
[2]; Sheep #604 Clint, 6 mg Morphine per day intrathecal, first infusion period, Dec. 11, 2001, day of study 4
  Pain Score: 45%
[2]; Sheep #604 Clint, 6 mg Morphine per day intrathecal, first infusion period, Dec. 12, 2001, day of study 5
  Pain Score: 30%
[2]; Sheep #604 Clint, 6 mg Morphine per day intrathecal, first infusion period, Dec. 13, 2001, day of study 6
  Pain Score: 35%
[2]; Sheep #604 Clint, 6 mg Morphine per day intrathecal, first infusion period, Dec. 14, 2001, day of study 7
  Pain Score: 40%
[2]; Sheep #604 Clint, 6 mg Morphine per day intrathecal, first infusion period, Dec. 15, 2001, day of study 8
  Pain Score: 50%
[2]; Sheep #604 Clint, 6 mg Morphine per day intrathecal, first infusion period, Dec. 16, 2001, day of study 9
  Pain Score: 40%
[2]; Sheep #604 Clint, 6 mg Morphine per day intrathecal, first infusion period, Dec. 17, 2001, day of study 10
  Pain Score: 33%
[2]; Sheep #604 Clint, 6 mg Morphine per day intrathecal, first infusion period, Dec. 18, 2001, day of study 11
  Pain Score: 35%
[2]; Sheep #604 Clint, 6 mg Morphine per day intrathecal, first infusion period, Dec. 19, 2001, day of study 12
  Pain Score: 35%
[2]; Sheep #604 Clint, 6 mg Morphine per day intrathecal, first infusion period, Dec. 20, 2001, day of study printed 0, changed to saline at 1:30 PM
  Pain Score: 33%
[2]; Sheep #604 Clint, 6 mg Morphine per day intrathecal, second infusion period after saline, Dec. 29, 2001, day of study 1
  Pain Score: 50%
[2]; Sheep #604 Clint, 6 mg Morphine per day intrathecal, second infusion period after saline, Dec. 30, 2001, day of study 2
  Pain Score: 40%
[2]; Sheep #604 Clint, 6 mg Morphine per day intrathecal, second infusion period after saline, Dec. 31, 2001, day of study 3
  Pain Score: 38%
[2]; Sheep #604 Clint, 6 mg Morphine per day intrathecal, second infusion period after saline, Jan. 1, 2002, day of study 4
  Pain Score: 40%
[2]; Sheep #604 Clint, 6 mg Morphine per day intrathecal, second infusion period after saline, Jan. 2, 2002, day of study 5
  Pain Score: 30%
[2]; Sheep #604 Clint, 6 mg Morphine per day intrathecal, second infusion period after saline, Jan. 3, 2002, day of study 6
  Pain Score: 33%
[2]; Sheep #604 Clint, 6 mg Morphine per day intrathecal, second infusion period after saline, Jan. 4, 2002, day of study 7
  Pain Score: 30%
[2]; Sheep #604 Clint, 6 mg Morphine per day intrathecal, second infusion period after saline, Jan. 5, 2002, day of study 8
  Pain Score: 30%
[2]; Sheep #604 Clint, 6 mg Morphine per day intrathecal, second infusion period after saline, Jan. 6, 2002, day of study 9
  Pain Score: 30%
[2]; Sheep #604 Clint, 6 mg Morphine per day intrathecal, second infusion period after saline, Jan. 7, 2002, day of study 10
  Pain Score: 30%
[2]; Sheep #604 Clint, 6 mg Morphine per day intrathecal, second infusion period after saline, Jan. 8, 2002, day of study 11
  Pain Score: 30%
[2]; Sheep #604 Clint, 6 mg Morphine per day intrathecal, second infusion period after saline, Jan. 9, 2002, day of study 12, pump then refilled with saline at 9:44 AM
  Pain Score: 15%
[2]; sheep #604 Clint, first 13 days of infusion at 6 mg/day
  average pain score: 43%
[2]; sheep #604 Clint, later infusions begun with either morphine or saline
  average pain scores: 30-50%
[2]; sheep #980 Dudley, 1 mg/day gradually increased to 6 mg/day
  average pain score: 76%
[2]; sheep #980 Dudley, 6.5 mg/day after 13 days of treatment
  Pain Score: 20%
[3]; iv
  approximate equipotent dose, IV: 200
[3]; po
  approximate equipotent dose, PO: 600
[3]
  approximate equipotent dose, IT: 10
